{"source": "patent US11249071B2", "about": "“Reactivation of x chromosome genes” (CALIFORNIA INSTITUTE OF TECHNOLOGY, priority 2015, dated 2022)", "system": "MLF cells having silenced X genes", "experiment": "X-chromosome reactivation assay (single molecule RNA FISH) in MLF cells treated with inhibitors", "type": "cell-based", "details": "mouse MLF cells, HDAC3 inhibitor alone (Scriptaid 100 nM), 48 hours, FIGS. 7A-7B", "procedure": "5,000 Mouse MLF cells were plated on a poly-D-lysine (Sigma) and 0.2% gelatin (Sigma)-coated #1.5 coverslip placed into wells of a 24-well plate containing HEK media (DMEM, 10% Gemini Benchmark FBS, 1×L-glutamine, 1× sodium pyruvate, 1×NEAA, 1× Pen/Strep; Life Technologies unless otherwise indicated). After 16 hours, inhibitors were added into the media and incubated the cells for 48 hours. The inhibitors and the concentration used were: 5-Azacytidine (6 μM; Sigma, A2385), 5-Aza-2′-deoxycytidine ([…]; Sigma, A3656), RG 108 (200 μM; Abcam, ab141013), Trichostatin A (5 μM; Sigma, T8552), and Scriptaid (100 nM; Sigma, S7817).\nCoverslips from siRNA transfection or inhibitor treatment were fixed in Histochoice (Sigma) for 10 min, washed thoroughly in PBS, and dehydrated in ethanol for storage until FISH staining. Single molecule RNA Fluorescence in situ hybridization (FISH) experiments were done using QuantiGene ViewRNA ISH Cell Assay (Affymetrix) and QuantiGene ViewRNA ISH Cell 740 Module (Affymetrix) according to manufacturer's protocol. […]\nCells were stained for target mRNAs and siRNA-targeted mRNA by FISH and imaged. Images were then analyzed using Matlab R2013b (described below). […] Within these cells, the copy number of target mRNAs were quantified using a peak finding method (described below) and compared across conditions. The mRNA levels were quantified for 50 individual cells. […]", "note": "Entries after “also recorded” stand apart in the source; their conditions may differ.", "data": [{"smiles": "O=C(CCCCCN1C(=O)c2cccc3cccc(c23)C1=O)NO", "note": "[Scriptaid]", "values": [{"measurement": "expression / reactivation of the Xist-dependent silenced Gpc4 gene, measured by levels of Gpc4 mRNA", "result": "resulting in expression of Gpc4; also recorded: resulting in the reactivation of the Xist-dependent silent Gpc4 gene"}]}]}
